Measurements as given in US10766869B2, “Triazoles for the treatment of demyelinating dieases” (Vertex Pharmaceuticals Incorporated, priority 2015, dated 2020).
Like-named read-outs stand apart in the source and are kept apart here.

System: primary rat mixed cortical cells
Assay: In vitro myelination assay (MBP positive myelin strands, fold myelin pixels above background)
Type: cell-based
Conditions: Rattus norvegicus; for fold induction at 1 µM: 1.0 μM compound; for fold induction at 10 µM: 10.0 μM compound
Outline: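 Fourteen-day treatment of primary P1 rat mixed cortical cultures, re-dosed at days 6 and 10, at 1.0 μM and 10.0 μM. MBP immunofluorescence was imaged at 10× and myelin strands quantified by software, normalised to untreated wells as fold above background.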

[1] = relative to baseline of no added compound, read-out: Fold myelin pixels above background
[2] = read-out: Fold myelin pixels above background relative to baseline of no added compound
[3] = relative to baseline of no added compound, read-out: Fold myelin pixels above background, 1.0 μM
[4] = relative to baseline of no added compound, read-out: Fold myelin pixels above background, 10.0 μM

| SMILES | fold induction at 1 µM [1] | fold induction at 10 µM [1] | fold induction at 1 µM [3] | fold induction at 10 µM [4] | also measured |
| --- | --- | --- | --- | --- | --- |
| Cc1cc(Nc2ncn(-c3cc(F)cc(F)c3)n2)cc(N2CC(N3CCO[C@@H](C)C3)C2)c1 [Compound 730, 1-(3,5-difluorophenyl)-N-[3-methyl-5-[3-[(2S)-2-methylmorpholin-4-yl]azetidin-1-yl]phenyl]-1,2,4-triazol-3-amine] | 10 to 100 | 10 to 100 |  |  |  |
| Cc1cc(Nc2ncn(-c3ccccc3)n2)cc(N2CCN(C3CCOC3)CC2)c1 (stereo not drawn) [Compound 434, N-[3-methyl-5-(4-tetrahydrofuran-3-ylpiperazin-1-yl)phenyl]-1-phenyl-1,2,4-triazol-3-amine] | 1000 to 10000 | 1000 to 10000 |  |  |  |
| Cc1cc(Nc2ncn(-c3cc(F)cc(F)c3)n2)cc(N2CCN(CC(C)(C)O)CC2C)c1 (stereo not drawn) [Compound 1024, 1-[4-[3-[[1-(3,5-difluorophenyl)-1,2,4-triazol-3-yl]amino]-5-methyl-phenyl]-3-methyl-piperazin-1-yl]-2-methyl-propan-2-ol] |  |  |  |  | fold induction at 1 µM [2]: 10 to 100; fold induction at 10 µM [2]: ≤ 1 |
| Cc1cc(Nc2ncn(-c3ccc(F)c(F)c3)n2)cc(N[C@H]2C[C@@H](N3CCOCC3)C2)c1 (single isomer, unassigned) [Compound 826, N1-[1-(3,4-difluorophenyl)-1,2,4-triazol-3-yl]-5-methyl-N3-(3-morpholinocyclobutyl)benzene-1,3-diamine] |  |  |  |  | fold induction at 1 µM [2]: 10 to 100; fold induction at 10 µM [2]: ≤ 1 |
| COC(=O)N1CCN(c2cc(C)cc(Nc3ncn(-c4cc(F)cc(F)c4)n3)c2)CC1 [Compound 422, methyl 4-[3-[[1-(3,5-difluorophenyl)-1,2,4-triazol-3-yl]amino]-5-methyl-phenyl]piperazine-1-carboxylate] | ≤ 1 | 100 to 1000 |  |  |  |
| Fc1cc(Nc2ncn(-c3ccccc3)n2)cc(N2CCCC2)c1 [Compound 336, N-(3-fluoro-5-pyrrolidin-1-yl-phenyl)-1-phenyl-1,2,4-triazol-3-amine] |  |  | 1 to 10 | ≤ 1 |  |
| Cc1cc(Nc2ncn(-c3cc(F)cc(F)c3)n2)nc(C2CCNCC2)c1 [Compound 744, N-[1-(3,5-difluorophenyl)-1,2,4-triazol-3-yl]-4-methyl-6-(4-piperidyl)pyridin-2-amine] | 1 to 10 | ≤ 1 |  |  |  |
| CCc1cc(Nc2ncn(-c3cccc(F)c3)n2)cc(N2CCN(C3COC3)CC2)c1 [Compound 468, N-[3-ethyl-5-[4-(oxetan-3-yl)piperazin-1-yl]phenyl]-1-(3-fluorophenyl)-1,2,4-triazol-3-amine] | 100 to 1000 | 1 to 10 |  |  |  |
| Cc1cc(Nc2ncn(-c3cc(F)cc(F)c3)n2)cc(N2CCN(C3CCOCC3)CC2)c1 [Compound 243, 1-(3,5-difluorophenyl)-N-[3-methyl-5-(4-tetrahydropyran-4-ylpiperazin-1-yl)phenyl]-1,2,4-triazol-3-amine] |  |  | 100 to 1000 | ≤ 1 |  |
| Cc1cc(Nc2ncn(-c3cc(F)cc(F)c3)n2)cc(N2CCCC2CS(C)(=O)=O)c1 (stereo not drawn) [Compound 1051, 1-(3,5-difluorophenyl)-N-[3-methyl-5-[2-(methylsulfonylmethyl)pyrrolidin-1-yl]phenyl]-1,2,4-triazol-3-amine] |  |  |  |  | fold induction at 1 µM [2]: 10 to 100; fold induction at 10 µM [2]: 1 to 10 |
| Cc1cc(Nc2ncn(-c3ncncc3F)n2)cc(N2CCN(C3COC3)CC2)c1 [Compound 291, 1-(5-fluoropyrimidin-4-yl)-N-[3-methyl-5-[4-(oxetan-3-yl)piperazin-1-yl]phenyl]-1,2,4-triazol-3-amine] |  |  | ≤ 1 | 1 to 10 |  |
| Cc1cc(Nc2ncn(-c3cncc(C)n3)n2)cc(N2CCN(C3COC3)CC2)c1 [Compound 271, N-[3-methyl-5-[4-(oxetan-3-yl)piperazin-1-yl]phenyl]-1-(6-methylpyrazin-2-yl)-1,2,4-triazol-3-amine] |  |  | ≤ 1 | ≤ 1 |  |
